Measurements taken from paper PMC7418987, “NHD2-15, a novel antagonist of Growth Factor Receptor-Bound Protein-2 (GRB2), inhibits leukemic proliferation” (PLoS ONE, 2020).

Columns and labels:
Assay type in all cases: binding
[1] = target: T1, Growth factor receptor-bound protein-2 (GRB2) (Homo sapiens, UniProt P62993); experiment: SPR (GRB2 immobilized on CM5 chip); supported by competition ELISA with GST-GRB2 and cellulose nitrate filtration assay
[2] = target: T1, Growth factor receptor-bound protein-2 (GRB2); experiment: SPR (GRB2 immobilized on CM5 chip); authors call conditions sub-par for this compound
[3] = target: T1, Growth factor receptor-bound protein-2 (GRB2); experiment: SPR (GRB2 immobilized on CM5 chip); authors call conditions sub-par; only two non-zero concentrations shown
From the text: SPR (GRB2 immobilized on CM5 chip); authors call conditions sub-par; only two non-zero concentrations shown on Growth factor receptor-bound protein-2 (GRB2) | SPR data of NHD2-107 versus GRB2.

T1 sequence (P62993 whole entry): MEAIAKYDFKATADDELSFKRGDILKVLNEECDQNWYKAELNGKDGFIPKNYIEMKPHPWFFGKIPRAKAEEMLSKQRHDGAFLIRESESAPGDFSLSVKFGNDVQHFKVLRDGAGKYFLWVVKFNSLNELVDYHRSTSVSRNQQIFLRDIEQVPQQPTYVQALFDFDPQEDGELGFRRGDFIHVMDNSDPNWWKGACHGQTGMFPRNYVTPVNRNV

`CC(=O)c1c(C)oc2nc3ccccc3nc12` [NHD2-15] gave a Kd [1] of 119 ± 2 µM.
Work on `COC(=O)c1c(C)oc2nc3ccccc3nc12` [NHD2-92] yielded a Kd [2] of 1000 ± 20 µM.
Work on `CCOC(=O)c1c(-c2ccccc2)oc2nc3ccccc3nc12` [NHD2-107] yielded a Kd [3] of 3.4 ± 0.1 mM.
Compound `CCOC(=O)c1c(C)oc2nc3ccccc3nc12` [NHD2-114] has a Kd [2] of 440 ± 7 µM.
